Values joined by “and” are separate entries in the source; they are usually repeats but may differ in a detail not shown here. Equal values may be shown once.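 Results reflect a 48-hour exposure of cells in 96-well plates to compound at five concentrations. Abbreviation: GI50, concentration required for 50% inhibition of growth. TGI: concentration producing complete growth inhibition.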
Columns and labels:
Assay in all cases: inhibition of tumour cell growth, NCI panel, 48 h
SN12C renal = system: SN12C renal
HS 578T breast = system: HS 578T breast
UO-31 renal = system: UO-31 renal
NCI/ADR-RES ovarian = system: NCI/ADR-RES ovarian
K-562 leukemia = system: K-562 leukemia
SK-MEL-28 melanoma = system: SK-MEL-28 melanoma
COLO 205 colon = system: COLO 205 colon
T-47D breast = system: T-47D breast
SNB-78 CNS = system: SNB-78 CNS
LXFL 529 NSCLC = system: LXFL 529 NSCLC

Row | Structure (SMILES) | GI50 (SN12C renal) | TGI (SN12C renal) | GI50 (HS 578T breast) | TGI (HS 578T breast) | GI50 (UO-31 renal) | TGI (UO-31 renal) | GI50 (NCI/ADR-RES ovarian) | TGI (NCI/ADR-RES ovarian) | GI50 (K-562 leukemia) | TGI (K-562 leukemia) | GI50 (SK-MEL-28 melanoma) | TGI (SK-MEL-28 melanoma) | GI50 (COLO 205 colon) | TGI (COLO 205 colon) | GI50 (T-47D breast) | TGI (T-47D breast) | GI50 (SNB-78 CNS) | TGI (SNB-78 CNS) | GI50 (LXFL 529 NSCLC) | TGI (LXFL 529 NSCLC)
1 | CO[C@H]1/C=C/O[C@@]2(C)Oc3c(C)c(O)c4c(c3C2=O)C(=O)C(/C=N/N(c2ccccc2)c2ccccc2)=C(NC(=O)/C(C)=C\C=C\[C@H](C)[C@H](O)[C@@H](C)[C@@H](O)[C@@H](C)[C@H](OC(C)=O)[C@@H]1C)C4=O | 1.82 µM | 3.33 µM | 2.04 µM | 5.39 µM | 1.65 µM | 3.21 µM | 2.4 µM | 5.31 µM | 2.69 µM | 9.36 µM | 1.71 µM | 3.36 µM | 1.75 µM | 3.46 µM | 1.84 µM | 3.85 µM |  |  |  | 
2 | [Cl][Hg][Cl] | 16.1 µM | 29.6 µM | 22.8 µM | 57.4 µM | 22.7 µM | 37.2 µM | 28.5 µM | 79.6 µM | 0.302 µM | 4.33 µM | 15.3 µM | 29.8 µM | 10.3 µM | 24.6 µM | 5.18 µM | 30.2 µM |  |  |  | 
3 | CCCNNC(=O)/C=C/c1ccc(CNCCc2c(C)[nH]c3ccccc23)cc1 | 0.0634 µM | 3.76 µM | 0.0437 µM | 0.621 µM | 0.0593 µM | 0.601 µM | 0.169 µM | 2.29 µM | 0.0111 µM | 3.78 µM | 0.0253 µM | 0.0964 µM | 0.0111 µM | 0.0428 µM | 0.00852 µM | 0.0624 µM |  |  |  | 
4 | CCOc1ccc2nc(SCc3nc4n(n3)S(=O)(=O)c3ccccc3N4C)sc2c1 | > 100 µM | > 100 µM | 45 µM | > 100 µM | > 100 µM | > 100 µM | > 100 µM | > 100 µM | 71.2 µM | > 100 µM | > 100 µM | > 100 µM | > 100 µM | > 100 µM | 81.6 µM | > 100 µM |  |  |  | 
5 | CCC[CH2][Sn]1([CH2]CCC)[O]CC(Cc2ccccc2)[O]1 (stereo unspecified) | 3.5 µM | 11.7 µM |  |  | 6.17 µM | 19 µM |  |  | 1.67 µM | 6.64 µM | 1.58 µM | 5.24 µM | 2.55 µM | 5.7 µM |  |  | 2.61 µM | 7.46 µM | 1.15 µM | 2.39 µM
6 | O=C1c2ccccc2-c2c1c1c(=O)[nH]c3ccccc3c1n2Cc1ccccc1 | 35.9 µM | > 100 µM | 16.5 µM | 35.7 µM | > 100 µM | > 100 µM | 52.6 µM | > 100 µM | > 100 µM | > 100 µM | 84.7 µM | > 100 µM | > 100 µM | > 100 µM | 34.3 µM | > 100 µM |  |  |  | 
7 | CC(=O)OCC1OC(n2c(-c3ccc(Cl)cc3)ccc(C#N)c2=S)C(OC(C)=O)C(OC(C)=O)C1OC(C)=O (stereo unspecified) |  | > 100 µM | 5.34 µM and 23.8 µM | 67.3 µM and > 100 µM |  | > 100 µM |  | > 100 µM |  | > 100 µM |  | > 100 µM | > 100 µM and 49.5 µM | > 100 µM |  | > 100 µM |  |  |  | 
8 | COc1cc2c(c(OC)c1OC)-c1ccc(SC)c(=O)cc1[C@@H](NCc1ccc(C#N)cc1)CC2 |  | > 100 µM |  |  |  | > 100 µM |  |  |  | > 100 µM |  |  |  | 0.0128 µM |  |  |  | > 100 µM |  | > 100 µM
9 | C=C1C(=O)O[C@H]2[C@H]1CC/C(COC(=O)CSCCSCC(=O)OC/C1=C/CC[C@@]3(C)O[C@H]3[C@H]3OC(=O)C(=C)[C@@H]3CC1)=C\CC[C@@]1(C)O[C@@H]21 | 2.19 µM | 5.34 µM | 4.65 µM | 38.9 µM | 1.41 µM | 2.75 µM | 3.61 µM | 16.7 µM | 1.17 µM | 25.7 µM | 1.92 µM | 3.81 µM | 1.48 µM | 2.95 µM | 1.63 µM | 3.5 µM |  |  |  | 
10 | COC(=O)N(C(=O)OC)C(C(=O)O)C(C)C (stereo unspecified) |  | > 100 µM |  |  |  | > 100 µM |  |  |  |  |  | > 100 µM |  | > 100 µM |  |  |  | > 100 µM |  | > 100 µM
11 | CC(C)CCC(=O)c1ccoc1 |  | > 100 µM |  | > 100 µM |  | > 100 µM |  | > 100 µM |  | > 100 µM |  | > 100 µM |  | > 100 µM |  | > 100 µM |  |  |  | 
12 | O=c1nc(/C=C/c2ccccc2Cl)cc2n1CCN2CCO |  | > 100 µM |  |  |  | > 100 µM |  |  |  | > 100 µM |  | > 100 µM |  | > 100 µM |  |  |  |  |  | > 100 µM
13 | O=C(CO[N+](=O)[O-])Nc1ccc(C(=O)/C=C/c2ccc(Cl)cc2)cc1 | 3.14 µM | 14.1 µM | 2.85 µM | 14.2 µM | 1.52 µM | 12.1 µM | 3.87 µM | > 100 µM | 2.6 µM | > 100 µM | 4.96 µM | 18.1 µM | 2.57 µM | 6.09 µM | 3.26 µM | 14.9 µM |  |  |  | 
14 | CC[N+](CC)=c1sc2c(s1)C(c1ccc(Cl)cc1)Oc1ccc(Cl)cc1-2 (stereo unspecified) | 1.33 µM | 3.33 µM | 1.43 µM | 5.59 µM | 2.82 µM | 15.4 µM | 21.6 µM | 67.2 µM | 0.917 µM | 10.3 µM | 1.32 µM | 2.82 µM | 1.65 µM | 3.77 µM | 1.67 µM | 6.39 µM |  |  |  | 
15 | Cc1ccc(SC(CCC(Sc2ccc(C)cc2)Sc2ccc(C)cc2)Sc2ccc(C)cc2)cc1 |  | > 100 µM |  |  |  | > 100 µM |  |  |  | > 100 µM |  | > 100 µM |  | > 100 µM |  |  |  | > 100 µM |  | 
16 | CCOC(=O)N1CCN(c2nc(Nc3cc(C)[nH]n3)c3ccccc3n2)CC1 | 2.24 µM | 52 µM | 1.16 µM | 5.42 µM | 0.854 µM | 24.6 µM | 4.25 µM | 37 µM | 2.94 µM | > 100 µM | 12.2 µM | 91.3 µM | 1.83 µM | 5.41 µM | 4.83 µM | 70.7 µM |  |  |  | 
17 | CC1CCC2(CC1)NN=c1s/c(=C\c3ccc(O)cc3)c(=O)n1N2 (stereo unspecified) |  | > 100 µM |  |  |  |  |  |  |  | > 100 µM |  | > 100 µM |  | > 100 µM |  |  |  | > 100 µM |  | > 100 µM

— PubChem BioAssay (NCI)
